Reference: US20060069132A1, “Azolecarboxamide herbicides” (priority 2004, published 2006)

Tests used:
[1] = system: corn (maize) cv. Pioneer 33G26; test: Test G safening on corn by naphthalic anhydride seed treatment, preemergence; format: in vivo, Zea mays
Excerpt: This test evaluated the safening of compounds of the invention on corn (maize; Zea mays L.) cv. ‘Pioneer 33G26’ by seed treatment with naphthalic anhydride (1,8-naphthalic anhydride). All corn seed had been first treated with fludioxonil and metaxyl applied at the manufacturer's recommended rate as per the Pioneer 33G26 label. Some of the corn seed were subsequently also treated with naphthalic anhydride as a 1% by weight seed dressing. The corn seed were planted in pots containing pasteurized Sassafras sandy loam soil, and then treatments were applied preemergence the same day. Treatments were applied by spraying the test compounds formulated in a non-phytotoxic solvent mixture, using a flat fan nozzle and a spray volume of 280 L/ha. The treatments were triply replicated and the results subsequently averaged. The pots were placed on a greenhouse bench using a complete randomized block design except for the first replicate, which was unrandomized. The plants were grown in the greenhouse and watered as needed with a dilute nutrient solution containing 200 ppm of N. Illumination was daylight supplemented by artificial sources to maintaining a photoperiod of 16 hours. The temperature was maintained at 28±2° C. during the day and 23±2° C. at night. The plant response was visually rated 25 days after treatment in comparison to untreated controls using a scale of 0 to 100, with 0 representing no effect and 100 representing complete plant death.

[2] = system: kochia; test: Test E pre-/postemergence herbicide test; format: in vivo, Kochia scoparia
Excerpt: Seeds of plant species selected from bipinnate beggarticks (Bidens bipinnata L.), hairy beggarticks (Bidens radiata Thuill.), bermudagrass (Cynodon dactylon (L.) Pers.), Surinam grass (Urochloa decumbens (Staph) R. D. Webster, previously named Brachiaria decumbens Stapf), large crabgrass (Digitaria sanguinalis (L.) Scop.), green foxtail (Setaria viridis (L.) P. Beauv.), goosegrass (Eleusine indica (L.) Gaertn.), johnsongrass (Sorghum halepense (L.) Pers.), kochia (Kochia scoparia (L.) Schrad.), pitted morningglory (Ipomoea lacunosa L.), purple nutsedge (Cyperus rotundus L.), common ragweed (Ambrosia elatior L.), mustard (Brassica nigra (L.) W. D. J. Koch), guineagrass (Panicum maximum Jacq.), dallisgrass (Paspalum dilatatum Poir.), barnyardgrass (Echinochloa crus-galli (L). P. Beauv.), southern sandbur (Cenchrus echinatus L.), common sowthistle (Sonchus oleraceous L.), prickly sida (Sida spinosa L.), Italian ryegrass (Lolium multiflorum Lam.), common purslane (Portulaca oleracea L.), broadleaf signalgrass (Brachiaria platyphylla (Griseb.) Nash), common groundsel (Senecio vulgaris L.), common chickweed (Stellaria media (L.) Vill/Cyr.), tropical spiderwort (Commelina benghalensis L.), annual bluegrass (Poa annua L.), downy bromegrass (Bromus tectorum L.), itchgrass (Rottboellia cochinchinensis (L.) L.f.), quackgrass (Elytrigia repens (L.) Nevski), Canada horseweed (Erigeron Canadensis L.), field bindweed (Convolvulus arvensis L.), spotted spurge (Euphorbia maculata L.), common mallow (Malva sylvestris (=s silvestris) L.), and Russian thistle (Salsola kali L. ssp. Ruthenica (Iljin) Soo) were planted and treated preemergence with test chemicals formulated in a non-phytotoxic solvent mixture which included a surfactant.
(§1) At the same time, plants selected from these weed species were treated with postemergence applications of some of the test chemicals formulated in the same manner. Plants ranged in height from 2 to 18 cm (1- to 4-leaf stage) for postemergence treatments. Treated plants and controls were maintained in a greenhouse for 12 to 14 days, after which time all species were compared to controls and visually evaluated. Plant response ratings, summarized in Table E, are based on a scale of 0 to 100 where 0 is no effect and 100 is complete control. A dash (-) response means no test result.

[3] = system: downy bromegrass; test: Test F pre-/postemergence herbicide test; format: in vivo, Bromus tectorum
Excerpt: (§2) Seeds of plant species selected from annual blugrass (Poa annua L.), blackgrass (Alopecurus myosuroides Huds.), catchweed bedstraw (Gallium aparine L.), common chickweed (Stellaria media (L.) Vill./Cyr.), downy bromegrass (Bromus tectorum L.), green foxtail (Setaria viridis (L.) Beauv.), Italian ryegrass (Lolium multiflorum Lam.), kochia (Kochia scoparia (L.). Schrad.), lambsquarters (Chenopodium album L.), littleseed canarygrass (Phalaris minor Retz.), pigweed (Amaranthus retroflexus L.), Russian thistle (Salsola kali L. ssp. Ruthenica (Iljin) Soo), wild buckwheat (Polygonum convolvulus L.), wild mustard (Sinapis arvensis L.), wild oat (Avena fatua L.), windgrass (Apera spica-venti (L.) Beauv.), winter barley (Hordeum vulgare L.), and wheat (Triticum aestivum L.) were planted and treated preemergence with test chemicals formulated in a non-phytotoxic solvent mixture which included a surfactant.
as §1, with “these crop and” for “these”, “F,” for “E,”

[4] = system: green foxtail; test: Test F pre-/postemergence herbicide test; format: in vivo, Setaria viridis
Excerpt: as §2
as §1, with “these crop and” for “these”, “F,” for “E,”

[5] = system: winter barley; test: Test F pre-/postemergence herbicide test; format: in vivo, Hordeum vulgare
Excerpt: as §2
as §1, with “these crop and” for “these”, “F,” for “E,”

[6] = system: blackgrass; test: Test F pre-/postemergence herbicide test; format: in vivo, Alopecurus myosuroides
Excerpt: as §2
as §1, with “these crop and” for “these”, “F,” for “E,”

[7] = Preemergence, 62 g ai/ha, scale 0 to 100
[8] = Preemergence, 250 g ai/ha, scale 0 (no effect) to 100 (complete control)
[9] = Preemergence, 500 g ai/ha, scale 0 (no effect) to 100 (complete control)

Question: CCNC(=O)c1ccc(F)c(NC(=O)c2cc(C(C)(C)C)nn2CC)c1 [Compound 2, 3-(1,1-dimethylethyl)-1-ethyl-N-[5-[(ethylamino)carbonyl]-2-fluorophenyl]-1H-pyrazole-5-carboxamide] was tested. Which “Response of corn, With 1% naphthalic anhydride seed treatment” value ([1]; 62 g a.i./ha) did it give?
Answer: Its value is 50.

Question: What about the “Response of corn, Without naphthalic anhydride seed treatment” value ([1]; 62 g a.i./ha) of the same molecule?
Answer: The value was 65.

Question: And the “Response of corn, With 1% naphthalic anhydride seed treatment” value ([1]; 125 g a.i./ha)?
Answer: Its value is 55.

Question: And the “Response of corn, Without naphthalic anhydride seed treatment” value ([1]; 125 g a.i./ha)?
Answer: Its value is 72.

Question: What about the “Response of corn, With 1% naphthalic anhydride seed treatment” value ([1]; 250 g a.i./ha) of the same molecule?
Answer: Its value is 68.

Question: And the “Response of corn, Without naphthalic anhydride seed treatment” value ([1]; 250 g a.i./ha)?
Answer: Its value is 78.

Question: And the “Response of corn, With 1% naphthalic anhydride seed treatment” value ([1]; 500 g a.i./ha)?
Answer: The value was 72.

Question: And the “Response of corn, Without naphthalic anhydride seed treatment” value ([1]; 500 g a.i./ha)?
Answer: The value was 85.

Question: And the “Plant response rating, Kochia” value [2, 7]?
Answer: Its value is 90.

Question: And the “Plant response rating, Kochia” value ([2]; Preemergence, 125 g ai/ha, scale 0 (no effect) to 100 (complete control))?
Answer: Its value is 100.

Question: What about the “Plant response rating, Kochia” value [2, 8] of the same molecule?
Answer: Its value is 100.

Question: And the “Plant response rating, Kochia” value [2, 9]?
Answer: Its value is 100.

Question: And the “Plant response rating, Kochia” value ([2]; postemergence, 125 g ai/ha, scale 0 to 100)?
Answer: The value was 100.

Question: What does the source list for CCn1nc(C(C)(C)C)cc1C(=O)Nc1cccc(C(N)=O)n1 [Compound 162, 6-[[[3-(1,1-dimethylethyl)-1-ethyl-1H-pyrazol-5-yl]carbonyl]amino]-2-pyridinecarboxamide]?
Answer: Plant response rating (0-100), Bromegrass, Downy ([3]; Postemergence, 62 g ai/ha): 50; Plant response rating (0-100), Bromegrass, Downy ([3]; Postemergence, 125 g ai/ha): 50; Plant response rating (0-100), Bromegrass, Downy ([3]; Postemergence, 250 g ai/ha): 80; Plant response rating (0-100), Bromegrass, Downy ([3]; Postemergence, 500 g ai/ha): 90; Plant response rating (0-100), Bromegrass, Downy ([3]; Preemergence, 62 g ai/ha): 70; Plant response rating (0-100), Bromegrass, Downy ([3]; Preemergence, 125 g ai/ha): 100; Plant response rating (0-100), Bromegrass, Downy ([3]; Preemergence, 250 g ai/ha): 100; Plant response rating (0-100), Bromegrass, Downy ([3]; Preemergence, 500 g ai/ha): 100; Plant response rating (0-100), Foxtail, Green ([4]; Postemergence, 62 g ai/ha): 50; Plant response rating (0-100), Foxtail, Green ([4]; Postemergence, 125 g ai/ha): 50; Plant response rating (0-100), Foxtail, Green ([4]; Postemergence, 250 g ai/ha): 60; Plant response rating (0-100), Foxtail, Green ([4]; Postemergence, 500 g ai/ha): 100; Plant response rating (0-100), Foxtail, Green ([4]; Preemergence, 62 g ai/ha): 70; Plant response rating (0-100), Foxtail, Green ([4]; Preemergence, 125 g ai/ha): 100; Plant response rating (0-100), Foxtail, Green ([4]; Preemergence, 250 g ai/ha): 100; Plant response rating (0-100), Foxtail, Green ([4]; Preemergence, 500 g ai/ha): 100; Plant response rating (0-100), Barley, Winter ([5]; Postemergence, 62 g ai/ha): 40; Plant response rating (0-100), Barley, Winter ([5]; Postemergence, 125 g ai/ha): 50; Plant response rating (0-100), Barley, Winter ([5]; Postemergence, 250 g ai/ha): 80; Plant response rating (0-100), Barley, Winter ([5]; Postemergence, 500 g ai/ha): 80; Plant response rating (0-100), Barley, Winter ([5]; Preemergence, 62 g ai/ha): 70; Plant response rating (0-100), Barley, Winter ([5]; Preemergence, 125 g ai/ha): 100; Plant response rating (0-100), Barley, Winter ([5]; Preemergence, 250 g ai/ha): 100; Plant response rating (0-100), Barley, Winter ([5]; Preemergence, 500 g ai/ha): 100; Plant response rating (0-100), Blackgrass ([6]; Postemergence, 62 g ai/ha): 70; Plant response rating (0-100), Blackgrass ([6]; Postemergence, 125 g ai/ha): 80; Plant response rating (0-100), Blackgrass ([6]; Postemergence, 250 g ai/ha): 100; Plant response rating (0-100), Blackgrass ([6]; Postemergence, 500 g ai/ha): 100; Plant response rating (0-100), Blackgrass ([6]; Preemergence, 62 g ai/ha): 90; Plant response rating (0-100), Blackgrass ([6]; Preemergence, 125 g ai/ha): 100; Plant response rating (0-100), Blackgrass ([6]; Preemergence, 250 g ai/ha): 100; Plant response rating (0-100), Blackgrass ([6]; Preemergence, 500 g ai/ha): 100; Response of corn, With 1% naphthalic anhydride seed treatment ([1]; 62 g a.i./ha): 0; Response of corn, Without naphthalic anhydride seed treatment ([1]; 62 g a.i./ha): 15; Response of corn, With 1% naphthalic anhydride seed treatment ([1]; 125 g a.i./ha): 25; Response of corn, Without naphthalic anhydride seed treatment ([1]; 125 g a.i./ha): 30; Response of corn, With 1% naphthalic anhydride seed treatment ([1]; 250 g a.i./ha): 60; Response of corn, Without naphthalic anhydride seed treatment ([1]; 250 g a.i./ha): 68; Response of corn, With 1% naphthalic anhydride seed treatment ([1]; 500 g a.i./ha): 63; Response of corn, Without naphthalic anhydride seed treatment ([1]; 500 g a.i./ha): 85; Plant response rating, Kochia [2, 7]: 60; Plant response rating, Kochia ([2]; Preemergence, 125 g ai/ha, scale 0 to 100): 70; Plant response rating, Kochia [2, 8]: 95; Plant response rating, Kochia [2, 9]: 95

Question: Which “Plant response rating (0-100), Bromegrass, Downy” value ([3]; Postemergence, 125 g ai/ha) does the source give for CCc1nn(C(C)(C)C)cc1C(=O)Nc1cc(C(=O)N(CC)CC)ccc1F [Compound 223] here?
Answer: The value was 20.

Question: What about the “Plant response rating (0-100), Bromegrass, Downy” value ([3]; Preemergence, 125 g ai/ha) of the same molecule?
Answer: The value was 50.

Question: What about the “Plant response rating (0-100), Foxtail, Green” value ([4]; Postemergence, 125 g ai/ha) of the same molecule?
Answer: Its value is 60.

Question: And the “Plant response rating (0-100), Foxtail, Green” value ([4]; Preemergence, 125 g ai/ha)?
Answer: Its value is 55.

Question: And the “Plant response rating (0-100), Barley, Winter” value ([5]; Postemergence, 125 g ai/ha)?
Answer: Its value is 0.

Question: And the “Plant response rating (0-100), Barley, Winter” value ([5]; Preemergence, 125 g ai/ha)?
Answer: Its value is 25.

Question: What about the “Plant response rating (0-100), Blackgrass” value ([6]; Postemergence, 125 g ai/ha) of the same molecule?
Answer: Its value is 60.

Question: And the “Plant response rating (0-100), Blackgrass” value ([6]; Preemergence, 125 g ai/ha)?
Answer: Its value is 70.
